# Data reported in patent US6930110B2, “Substituted alkylaminopyridazinone derivatives, process for the preparation thereof and pharmaceutical composition containing the same” (Egis Gyogyszergyar Rt., priority 2001, dated 2005).
# Where a name gives a salt, the structure may show the parent alone. Read-outs that look alike come from different tables or passages of the source.
# Columns and labels:
# [1] = test system: Male Sprague-Dawley rats; assay: Elevated plus-maze test in rats; type: in vivo, rat; details: 60 min after treatment, minimal effective dose regarding the time spent in the open arms
# Excerpt: Tests have been performed as described by Pellow and co-workers [J. Neurosci. Methods, 14, 149 (1985)]. A wooden cross, 15 cm wide with 100 cm long arms was used for the experiments. The sides and ends of two opposite arms of the cross were equipped with 40 cm high walls, however, the arms were open to the 15×15 cm central area (closed arms). The two other opposite arms were not encircled by walls (open arms).
# Male Sprague-Dawley rats weighing 200-220 g were used for the experiments. The animals were placed in the central area of the equipment 60 min after treatment and the following four parameters have been observed for the 5 min test time: • time spent in the open arms, • time spent in the closed arms, • number of entries into the open arms, • number of entries into the closed arms.
# The effect was expressed as percent increase in either the time (measured in sec) spent in the open arms or number of entries into the open arms. MEDs (minimal effective dose) were determined for each compound regarding the time spent in the open arms. Buspirone [8-{4-[4-(2-pyrimidinyl)-1-piperazinyl]butyl}-8-azaspiro[4,5]decane-7,9-dione] was used as the reference substance.
# [2] = test system: mouse; assay: Inhibition of spontaneous motor activity (sedative effect); type: in vivo
# Description: The effect on spontaneous motor activity was investigated according to Borsy and co-workers [Borsy, J. et al, Arch. Int. Pharmacodyn., 124, 180-190 (1960)] in a ten channel Dews instrument, with 1-1 animal in each channel. Animals were placed into the instrument 60 min after per os treatment with either vehicle or test compound, and interruptions of infrared beams were recorded for 30 min. […] Inhibitory doses (ID50)have been determined by regression analysis. Diazepam was used as the reference substance.
# [3] = test system: male Wistar rats; assay: Effects on blood pressure, radiotelemetry in conscious rats; details: for Mean blood pressure after treatment with test compound (mmHg), Mean: mean arterial blood pressure for 6 hours after oral treatment; for Results of statistical evaluation: test compound compared to placebo, mean arterial blood pressure for 6 hours after treatment
# Description: (§1) The experiments were performed in conscious, freely moving, male Wistar rats using a radiotelemetry system (Data Sciences International, St. Paul, Minn., USA). Prior to treatments rats were implanted with transmitters (type: TL11M2-C50-PXT) that permitted continues monitoring of arterial blood pressure. Under sterile surgical conditions, catheter of the transmitter was introduced into the abdominal aorta for measurement of arterial blood pressure and the transmitter was sutured to the abdominal wall of animals anaesthetised with pentobarbital-Na (60 mg/kg, i.p.; Nembutal inj. Phylaxia-Sanofi, Budapest). After surgery the animals were treated with an antibiotic (1 ml/kg i.m. Tardomyocel comp. inj. ad us. vet., Bayer A G, Leverkusen, Germany). A 7 day postoperative recovery period was allowed. Radio signals emitted by the transmitters were detected by RLA1000 type receivers placed under each animal's cage. The data were collected, saved and evaluated using the Dataquest IV. software from Data Sciences. The computer was set to sample the parameters for 10 seconds in every second minute.
# (§2) The test substances or vehicle (methyl cellulose 0.4% w/v) were administered orally by gavage in a volume of 1 ml/kg at about 10 a.m. The effects of test items were measured for 6 hours. The effect of each compound was compared with that caused by vehicle treatment using two-way analysis of variance for repeated measures with Scheffe's post hoc test.
# [4] = test system: male Wistar rats; assay: Vogel lick-conflict (drinking conflict) test; type: in vivo, rat; details: intraperitoneally, 30 min prior to test, number of tolerated shocks
# Description: Experiments were performed in a PC operated system (LIIKOSYS, Experimentria, Hungary) consisted of 8 test chambers (20 cm×20 cm×20 cm Plexiglas boxes) each of which was equipped with a water fountain system mounted at appropriate height on the wall of the chamber and metal grid floor for delivering electric shocks. 160-180 g male Wistar rats N=8) were deprived of drinking water 48 h and fasted for 24 h prior to test. Test and reference compounds or vehicle were administered intraperitoneally, 30 min prior to test. All procedures were carried out in a quiet, air-conditioned room between 07:30 and 13:00 h at an ambient temperature of 23±2° C. At the beginning of the test the animals were placed in the test chamber where they had free access to drinking water for a 30 s grace period. After that, electric shocks (600 μA, 0.6 s) were applied through the drinking spout following every 20 licks during the 5 min test period (Vogel et al, 1971). Number of punished licks were recorded and stored by an IBM compatible computer. Means±SEM of numbers of tolerated shocks were calculated in each group, statistical analysis of data was performed by one way ANOVA followed by Duncan's test ([…]). Diazepam [7-chloro-1,3-dihydro-1-methyl-5-phenyl-2H-1,4-benzodiazepine-2-one] was used as the reference substance.
# [5] = test system: male Wistar rats; details: rat, in vivo
# Description: as §1, §2
# [6] = per os, 60 min before test, interruptions of infrared beams recorded for 30 min
SMILES,MED in mg/kg po. [1],melting point,MED in mg/kg ip. [4],other results
"O=c1[nH]nccc1NCCCNCCOc1cccc2c1OCCO2 [Example 9, 4-{3-[2-(2,3-dihydrobenzo[1,4]dioxine-5-yloxy)ethylamino]-propylamino}-2H-pyridazine-3-one]",0.3 mg/kg,,,"ID50 in mg/kg po. [2, 6]: >30.0 mg/kg"
"CN(CCN1CCN(c2cccc3c2OCCO3)CC1)c1cnn(C)c(=O)c1 [Example 16, 5-(2-(4-(2,3-dihydro-benzo[1,4]dioxine-5-yl)-piperazine-1-yl)-ethyl-methyl-amino)-2-methyl-2H-pyridazine-3-one-hydrochloride]",,,,"Mean blood pressure after treatment with test compound (mmHg), Mean [3]: 105.2 mmHg; Results of statistical evaluation [3]: N.S."
"CN(CCN1CCN(c2cccc3c2OCCO3)CC1)c1cnn(C)c(=O)c1Cl [Example 17, 4-chloro-5-({2-[4-(2,3-dihydro-benzo[1,4]dioxine-5-yl)-piperazine-1-yl]-ethyl}-methyl-amino)-2-methyl-2H-pyridazine-3-one]",,114 to 116 °C,,
"CN(CCN1CCN(c2cccc3c2OCCO3)CC1)c1cn[nH]c(=O)c1Cl [Example 7, 4-chloro-5-{2-[4-(2,3-dihydrobenzo[1,4]dioxine-5-yl)-piperazine-1-yl]ethyl}methylamino-2H-pyridazine-3-one]",,,<10.0 mg/kg,"Results of statistical evaluation [5]: N.S.; Mean blood pressure after treatment with test compound (mmHg), Mean ([5]; po): 97.0 mmHg"
"O=c1cc(NCCN2CCN(c3cccc4c3OCCO4)CC2)cn[nH]1 [Example 10, 5-{2-[4-(2,3-dihydro-1,4-benzodioxine-5-yl)-piperazine-1-yl]-ethylamino}-2H-pyridazine-3-one]",0.01 mg/kg,244 to 246 °C,5.0 mg/kg,"ID50 in mg/kg po. [2, 6]: 53.3 mg/kg"
"CN(CCN1CCN(c2cccc3c2OCCO3)CC1)c1cnn(C)c(=O)c1 (as salt: hydrochloride) [Example 16, 5-(2-(4-(2,3-dihydro-benzo[1,4]dioxine-5-yl)-piperazine-1-yl)-ethyl-methyl-amino)-2-methyl-2H-pyridazine-3-one-hydrochloride]",,249 to 251 °C,,
"O=c1cc(NCCN2CCN(c3cc(Cl)cc4c3OCCO4)CC2)cn[nH]1 [Example 11, 5-{2-[4-(7-chloro-2,3-dihydrobenzo[1,4]dioxine-5-yl)-piperazine-1-yl]ethylamino}-2H-pyridazine-3-one]",,115 to 117 °C,20.0 mg/kg,"Mean blood pressure after treatment with test compound (mmHg), Mean [3]: 101.5 mmHg; Results of statistical evaluation [3]: N.S."
"Cn1ncc(NCCN2CCN(c3cccc4c3OCCO4)CC2)cc1=O [Example 14, 5-{2-[4-(2,3-dihydro1,4-benzodioxine-5-yl)-piperazine-1-yl]-ethylamino}-2-methyl-2H-pyridazine-3-one]",,188 to 190 °C,,
"O=c1cc(NCCCN2CCN(c3cccc4c3OCCO4)CC2)cn[nH]1 [Example 12, 5-{3-[4-(2,3-dihydro-1,4-benzodioxine-5-yl)piperazine-1-yl]-propylamino}-2H-pyridazine-3-one]",,158 to 160 °C,,"Mean blood pressure after treatment with test compound (mmHg), Mean [3]: 89.9 mmHg; Results of statistical evaluation [3]: N.S."
"CCCN(CCCNc1c(Cl)cn[nH]c1=O)CCOc1cccc2c1OCCO2 [Example 2, 5-chloro-4-(3-{[2-(2,3-dihydrobenzo[1,4]dioxine-5-yloxy)-ethyl]propyl-amino}propylamino)-2H-pyridazine-3-one]",10.0 mg/kg,87 to 89 °C,20.0 mg/kg,
"O=c1[nH]nccc1NCCCNCCOc1cccc2c1OCCO2 (as salt: hydrochloride) [Example 9, 4-{3-[2-(2,3-dihydrobenzo[1,4]dioxine-5-yloxy)ethylamino]-propylamino}-2H-pyridazine-3-one]",,203 to 204 °C,,
"O=c1[nH]ncc(Cl)c1NCCCCN1CCN(c2cccc3c2OCCO3)CC1 [Example 4, 5-chloro-4-{4-[4-(2,3-dihydrobenzo[1,4]dioxine-5-yl)-piperazine-1-yl]-butylamino}-2H-piridazine-3-one]",1.0 mg/kg,,20.0 mg/kg,"ID50 in mg/kg po. ([2]; in vivo, po): 30.0 mg/kg"
"CN1C(=O)CN=C(c2ccccc2)c2cc(Cl)ccc21 [Diazepam, 7-chloro-1,3-dihydro-1-methyl-5-phenyl-2H-1,4-benzodiazepine-2-one, reference compound]",,,5.0 mg/kg,"ID50 in mg/kg po. [2, 6]: 7.0 mg/kg"
"O=c1[nH]ncc(NCCN2CCN(c3cccc4c3OCCO4)CC2)c1Cl [Example 5, 4-chloro-5-{2-[4-(2,3-dihydrobenzo[1,4]dioxine-5-yl)-piperazin-1-yl]-ethylamino}-2H-pyridazine-3-one]",0.003 mg/kg,217 to 219 °C,,"ID50 in mg/kg po. [2, 6]: 11.0 mg/kg"
"CC(C)(C)n1ncc(Cl)c(NCCN2CCN(c3cccc4c3OCCO4)CC2)c1=O [Example 8, 2-tert.-butyl-5-chloro-4-{2-[4-(2,3-dihydrobenzo-[1,4]dioxine-5-yl)piperazine-1-yl]ethylamino}-2H-pyridazine-3-one]",,177 to 178 °C,,"Mean blood pressure after treatment with test compound (mmHg), Mean [3]: 95.4 mmHg; Results of statistical evaluation [3]: N.S."
"O=c1[nH]ncc(Cl)c1NCCCN(CCOc1cccc2c1OCCO2)Cc1ccccc1 [Example 3, 4-{3-[benzyl-[2-(2,3-dihydrobenzo[1,4]dioxine-5-yloxy)ethyl]-amino]propylamino}-5-chloro-2H-pyridazine-3-one hydrochloride]",10.0 mg/kg,,,
"O=c1[nH]ncc(Cl)c1NCCCN(CCOc1cccc2c1OCCO2)Cc1ccccc1 (as salt: hydrochloride) [Example 3, 4-{3-[benzyl-[2-(2,3-dihydrobenzo[1,4]dioxine-5-yloxy)ethyl]-amino]propylamino}-5-chloro-2H-pyridazine-3-one hydrochloride]",,207 to 209 °C,,
"O=C1CC2(CCCC2)CC(=O)N1CCCCN1CCN(c2ncccn2)CC1 [Buspirone, 8-{4-[4-(2-pyrimidinyl)-1-piperazinyl]butyl}-8-azaspiro[4,5]decane-7,9-dione, reference compound]",3.0 mg/kg,,,
"Cn1ncc(NCCN2CCN(c3cccc4c3OCCO4)CC2)c(Cl)c1=O.O [Example 6, 4-chloro-5-{2-[4-(2,3-dihydro-1,4-benzodioxine-5-yl)-piperazine-1-yl]-ethylamino}-2-methyl-2H-piridazine-3-one monohydrate]",,,<5.0 mg/kg,"Mean blood pressure after treatment with test compound (mmHg), Mean [3]: 106.3 mmHg; Results of statistical evaluation [3]: N.S."
"O=c1cc(NCCNCCOc2cccc3c2OCCO3)cn[nH]1 [Example 13, 5-{2-[2-(2,3-dihydrobenzo[1,4]dioxine-5-yloxy)ethylamino)-ethylamino)-2H-pyridazine-3-one]",,81 to 83 °C,,
